Literature values as cited in patent publication US10716959B2, “Polymer-flavonoid conjugates and hydrogels for biomedical applications” (AGENCY FOR SCIENCE, TECHNOLOGY AND RESEARCH, priority 2013, dated 2020).

Settings: physiological temperature and pH

half-life: less than 30 min
Structure (SMILES): O=C(O[C@@H]1Cc2c(O)cc(O)cc2O[C@@H]1c1cc(O)c(O)c(O)c1)c1cc(O)c(O)c(O)c1 [EGCG, (−)-epigallocatechin-3-gallate]
